# Assay results published in patent US20050064412A1, “Method of evaluating degree of canceration of mammal-origin specimen” (priority 2001, published 2005).
# Assays:
# Type in all cases: cell-based, human
# [1] = tested on: 3OST2 gene; assay: Methylation-specific PCR of 3OST2 gene after culture with methylation inhibitor (MDA-MB-468); details: breast cancer cell line MDA-MB-468 cultured in the presence of 0.5 μM 5Aza-dC, FIG. 2
# Description: (§1) Two kinds of human-derived breast cancer cell lines (MCF-7, MDA-MB-468) and human-derived normal mammary gland epithelial cell (HMEC) were seeded at a density of 3 to 6×10^5 cells/10 cm plate, and cultured using RPMI or DMEM or an exclusively used medium. On the first day after seeding, 5-aza-2′-deoxytidine (manufactured by sigma) (hereinafter, referred to as 5Aza-dC) which is a methylation inhibitor was added to a medium to give the concentration of 0.5 to 6 μM. Twenty four hours after addition of 5Aza-Dc, the medium was exchanged with the aforementioned medium to which no 5Aza-dC was added, and culturing was continued. Then, on the third day after seeding, 5Aza-dC was added to the medium similarly. On the fourth day after seeding, cells were recovered, and a genomic DNA was extracted and recovered from the recovered cells according to the same manner as that of Example 1. Further, according to the same manner as that of Example 2, a RNA was extracted and recovered.
# (§2) The extracted and recovered genomic DNA was treated with sodium bisulfite according to the same manner as that of Example 1. The resulting DNA was used as a template and PCR was performed using unmethylation-specific primers U2 and U3, or methylation-specific primers M3 and M4 shown below. […]
# [2] = tested on: 3OST2 gene; assay: Methylation-specific PCR of 3OST2 gene after culture with methylation inhibitor (MCF-7); details: breast cancer cell line MCF-7 cultured in the presence of 6 μM 5Aza-dC, FIG. 2
# Description: as §1, §2
# [3] = tested on: 3OST2 gene; assay: RT-PCR of 3OST2 gene mRNA after culture with methylation inhibitor (MDA-MB-468); details: FIG. 3
# Description: The thus obtained RNA was treated with DNaseI (Life Technologies), and this was used as a template and Superscript II (Life Technologies) was used to synthesize a cDNA according to a protocol attached to the enzyme. By performing PCR using the synthesized cDNA as a template and using 3OST2 S and 3OST2 A shown below as a primer pair, a DNA derived from a mRNA of 3OST2 gene was amplified. Thereupon, as a control by performing PCR using the aforementioned cDNA as a template and using GAPDH S and GAPDH A solution below as a primer pair, a DNA derived from a mRNA of a GAPDH gene was amplified.
# A reaction solution PCR was used which was obtained by mixing 20 ng of a cDNA as a template, each 0.25 μl of two kinds of 25 pmol/μl aforementioned primer solution, 0.5 μl of 10 mM dNTP, 2.5 μl of 10× buffer (100 mM Tris-HCl pH 8.3, 500 mM KCl, 20 mM MgCl2) and 0.15 μl of a 5 U/μl thermostable DNA polymerase, and adding sterilized ultrapure water thereto to an amount of solution of 25 μl. When a DNA derived from mRNA of 3OST2 gene was amplified, PCR was performed at the conditions under which the reaction solution was retained at 94° C. for 10 minutes, 28 cycles of temperature maintenance were performed, each cycle was 30 seconds at 94° C., 30 seconds at 45° C. and 60 seconds at 72° C., and a temperature was maintained at 72° C. for 10 minutes. […]
structure (smiles),measurement,setting,value
"Nc1ncn([C@H]2C[C@H](O)[C@@H](CO)O2)c(=O)n1 [5Aza-dC, 5-aza-2′-deoxytidine]","methylation status of cytosines 1260, 1271, 1281, 1410, 1418, 1423 and 1425 of SEQ ID NO: 1 (3OST2 gene)",[1],not methylated in almost genomic DNAs
same,"methylation status of cytosines 1260, 1271, 1281, 1410, 1418, 1423 and 1425 of SEQ ID NO: 1 (3OST2 gene)",[2],not methylated in genomic DNAs of approximately half of cells
same,DNA (161 bp) derived from a mRNA of 3OST2 gene (expression),[3]; MAD-MB-468 cultured in the presence of 0.5 μM 5Aza-dC,detected
same,DNA (161 bp) derived from a mRNA of 3OST2 gene (expression),[3]; MAD-MB-468 cultured in the presence of 1 μM 5Aza-dC,detected
